Reference: patent publication US20210395239A1 (Hoffmann-La Roche Inc., priority 2018, published 2021)

These compounds were tested against T1, hTLR9 (Homo sapiens, UniProt Q9NR96) (assay: HEK293-Blue-hTLR-9 cells assay (SEAP reporter, ODN2006 stimulation)). Conditions: HEK293-Blue-hTLR9 cells, ODN2006, 20 hrs; read-out: HEK/hTLR9 IC50.
T1 sequence (Q9NR96 26-1032): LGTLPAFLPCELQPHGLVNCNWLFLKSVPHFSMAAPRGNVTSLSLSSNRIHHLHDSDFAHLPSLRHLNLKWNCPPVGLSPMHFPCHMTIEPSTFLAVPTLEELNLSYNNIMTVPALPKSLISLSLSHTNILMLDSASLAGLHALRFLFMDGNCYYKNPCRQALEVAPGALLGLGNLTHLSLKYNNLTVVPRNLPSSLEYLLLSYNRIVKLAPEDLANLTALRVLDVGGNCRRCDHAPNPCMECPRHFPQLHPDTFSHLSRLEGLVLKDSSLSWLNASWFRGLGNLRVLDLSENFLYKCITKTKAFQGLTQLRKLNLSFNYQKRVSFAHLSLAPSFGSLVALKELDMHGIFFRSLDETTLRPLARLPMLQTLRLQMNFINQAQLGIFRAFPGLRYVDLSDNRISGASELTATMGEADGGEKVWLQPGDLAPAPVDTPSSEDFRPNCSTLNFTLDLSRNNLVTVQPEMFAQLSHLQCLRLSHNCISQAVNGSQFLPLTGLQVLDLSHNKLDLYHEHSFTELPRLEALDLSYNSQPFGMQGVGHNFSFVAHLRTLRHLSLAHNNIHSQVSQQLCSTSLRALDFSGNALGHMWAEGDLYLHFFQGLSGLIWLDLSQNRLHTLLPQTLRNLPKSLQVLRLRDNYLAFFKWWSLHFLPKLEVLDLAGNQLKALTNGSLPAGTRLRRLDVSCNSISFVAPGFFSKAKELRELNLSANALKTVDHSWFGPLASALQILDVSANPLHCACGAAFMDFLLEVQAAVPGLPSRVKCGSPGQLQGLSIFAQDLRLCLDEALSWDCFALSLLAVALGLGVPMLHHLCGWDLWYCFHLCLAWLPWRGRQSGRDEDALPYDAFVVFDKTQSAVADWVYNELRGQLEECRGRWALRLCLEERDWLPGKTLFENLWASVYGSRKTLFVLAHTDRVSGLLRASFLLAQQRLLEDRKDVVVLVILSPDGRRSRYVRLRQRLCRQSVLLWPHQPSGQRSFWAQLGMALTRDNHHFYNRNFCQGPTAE
Type: cell-based
Design: host or cells: HEK293 (HEK-Blue hTLR9)
Outline: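 HEK293-Blue-hTLR9 cells with NF-κB/AP-1-driven SEAP reporter treated with serially diluted compound (1% DMSO final) plus ODN2006 for 20 h at 37 °C. Supernatant SEAP measured with QUANTI-Blue, 2 h at 37 °C, absorbance 620–655 nm; antagonism seen as reduced reporter signal.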
`CO[C@H]1CN(c2nc(C)cc(N3CCN(C[C@H]4CN(c5ccc(C#N)c6ncccc56)C[C@@H](C)O4)CC3)n2)CC1N` (relative stereo) [Example 59, 5-[(2R,6S)-2-methyl-6-[[4-[6-methyl-2-[trans-3-amino-4-methoxy-pyrrolidin-1-yl]pyrimidin-4-yl]piperazin-1-yl]methyl]morpholin-4-yl]quinoline-8-carbonitrile] showed an IC50 of 32 nM. For `COC1CNC[C@H]1Nc1cccc(N2CCN(C[C@H]3CN(c4ccc(C#N)c5ncccc45)C[C@@H](C)O3)CC2)n1` (stereo in doubt) [Example 39, 5-[(2S,6R)-2-[[4-[6-[[(3R,4R)-4-methoxypyrrolidin-3-yl]amino]-2-pyridyl]piperazin-1-yl]methyl]-6-methyl-morpholin-4-yl]quinoline-8-carbonitrile], the IC50 was 104 nM. `COC1CN(c2nccc(N3CCN(C[C@H]4CN(c5ccc(C#N)c6ncccc56)C[C@@H](C)O4)CC3)n2)C[C@H]1N` (stereo in doubt) [Example 52, 5-[(2S,6R)-2-[[4-[2-[(3R,4R)-3-amino-4-methoxy-pyrrolidin-1-yl]pyrimidin-4-yl]piperazin-1-yl]methyl]-6-methyl-morpholin-4-yl]quinoline-8-carbonitrile] gave an IC50 of 32 nM. In the case of `CO[C@H]1CN(c2nccc(N3CCN(C[C@H]4CN(c5ccc(C#N)c6ncccc56)C[C@@H](C)O4)CC3)n2)CC1N` (stereo in doubt) [Example 53, 5-[(2S,6R)-2-[[4-[2-[(3S,4S)-3-amino-4-methoxy-pyrrolidin-1-yl]pyrimidin-4-yl]piperazin-1-yl]methyl]-6-methyl-morpholin-4-yl]quinoline-8-carbonitrile], the IC50 is reported as 32 nM. In the case of `Cc1cc(N2CCN(C[C@H]3CN(c4ccc(C#N)c5ncccc45)C[C@@H](C)O3)CC2)nc(N2CC(N)C(F)C2)n1` (stereo in doubt) [Example 54, 5-[(2S,6R)-2-[[4-[2-[(3S,4R)-3-amino-4-fluoro-pyrrolidin-1-yl]-6-methyl-pyrimidin-4-yl]piperazin-1-yl]methyl]-6-methyl-morpholin-4-yl]quinoline-8-carbonitrile], the IC50 is reported as 34 nM. `COC1CN(c2ccc(C3CN(C[C@H]4CN(c5cc(=O)n(C)c6ncccc56)C[C@@H](C)O4)C3)cc2)C[C@H]1N` (stereo in doubt) [Example 172, 4-[(2S,6R)-2-[[3-[4-[(3R,4R)-3-amino-4-methoxy-pyrrolidin-1-yl]phenyl]azetidin-1-yl]methyl]-6-methyl-morpholin-4-yl]-1-methyl-1,8-naphthyridin-2-one] showed an IC50 of 57 nM. `C[C@@H]1CN(c2cc(=O)n(C)c3ncccc23)C[C@H](CN2CC(c3ccc(N4CC(F)[C@H](N)C4)cc3)C2)O1` (stereo in doubt) [Example 174, 4-[(2S,6R)-2-[[3-[4-[(3R,4R)-3-amino-4-fluoro-pyrrolidin-1-yl]phenyl]azetidin-1-yl]methyl]-6-methyl-morpholin-4-yl]-1-methyl-1,8-naphthyridin-2-one] showed an IC50 of 86 nM. `C[C@@H]1CN(c2ccc(C#N)n3ncc(F)c23)C[C@H](CN2CCN(c3ccc(C4CNCCO4)cc3F)CC2)O1` (stereo in doubt) [Example 183, 3-fluoro-4-[(2S,6R)-2-[[4-[2-fluoro-4-[(2S)-morpholin-2-yl]phenyl]piperazin-1-yl]methyl]-6-methyl-morpholin-4-yl]pyrazolo[1,5-a]pyridine-7-carbonitrile] showed an IC50 of 120 nM. `C[C@@H]1CN(c2ccc(C#N)c3ncccc23)C[C@H](CN2CCN(c3cncc(N4CCNCC4)c3)CC2)O1` [Example 7, 5-[(2R,6S)-2-methyl-6-[[4-(5-piperazin-1-yl-3-pyridyl)piperazin-1-yl]methyl]morpholin-4-yl]quinoline-8-carbonitrile] gave an IC50 of 51 nM. `C[C@@H]1CN(c2ccc(C#N)c3ncccc23)C[C@H](CN2CCN(c3ccc(N4CCNCC4)cn3)CC2)O1` [Example 8, 5-[(2R,6S)-2-methyl-6-[[4-(5-piperazin-1-yl-2-pyridyl)piperazin-1-yl]methyl]morpholin-4-yl]quinoline-8-carbonitrile] gave an IC50 of 93 nM. With `C[C@@H]1CN(c2ccc(C#N)c3ncccc23)C[C@H](CN2CCN(c3cc(N4CCNCC4)ccn3)CC2)O1` [Example 9, 5-[(2R,6S)-2-methyl-6-[[4-(4-piperazin-1-yl-2-pyridyl)piperazin-1-yl]methyl]morpholin-4-yl]quinoline-8-carbonitrile] the IC50 was 32 nM. `C[C@@H]1CN(c2ccc(C#N)c3ncccc23)C[C@H](CN2CCN(c3cccc(N4CCNCC4)n3)CC2)O1` [Example 10, 5-[(2R,6S)-2-methyl-6-[[4-(6-piperazin-1-yl-2-pyridyl)piperazin-1-yl]methyl]morpholin-4-yl]quinoline-8-carbonitrile] showed an IC50 of 105 nM. For `C[C@@H]1CN(c2ccc(C#N)c3ncccc23)C[C@H](CN2CCC(C#N)(c3ccc(N4CCNCC4)cc3)CC2)O1` [Example 11, 5-[(2S,6R)-2-[[4-cyano-4-(4-piperazin-1-ylphenyl)-1-piperidyl]methyl]-6-methyl-morpholin-4-yl]quinoline-8-carbonitrile], the IC50 was 92 nM. `C[C@@H]1CN(c2ccc(C#N)c3ncccc23)C[C@H](CN2CCN(c3cnc(N4CCNCC4)nc3)CC2)O1` [Example 12, 5-[(2R,6S)-2-methyl-6-[[4-(2-piperazin-1-ylpyrimidin-5-yl)piperazin-1-yl]methyl]morpholin-4-yl]quinoline-8-carbonitrile] was tested, and the IC50 was 32 nM. `C[C@@H]1CN(c2ccc(C#N)c3ncccc23)C[C@H](CN2CCN(c3ccc(N4CCNCC4)nc3)CC2)O1` [Example 13, 5-[(2R,6S)-2-methyl-6-[[4-(6-piperazin-1-yl-3-pyridyl)piperazin-1-yl]methyl]morpholin-4-yl]quinoline-8-carbonitrile] was tested, and the IC50 was 142 nM. In the case of `C[C@@H]1CN(c2ccc(C#N)c3ncccc23)C[C@H](CN2CCN(c3nccc(N4CCNCC4)n3)CC2)O1` [Example 14, 5-[(2R,6S)-2-methyl-6-[[4-(4-piperazin-1-ylpyrimidin-2-yl)piperazin-1-yl]methyl]morpholin-4-yl]quinoline-8-carbonitrile], the IC50 is reported as 32 nM. `C[C@@H]1CN(c2ccc(C#N)c3ncccc23)C[C@H](CN2CCN(c3ccnc(N4CCNCC4)n3)CC2)O1` [Example 15, 5-[(2R,6S)-2-methyl-6-[[4-(2-piperazin-1-ylpyrimidin-4-yl)piperazin-1-yl]methyl]morpholin-4-yl]quinoline-8-carbonitrile] showed an IC50 of 36 nM. For `C[C@@H]1CN(c2ccc(C#N)c3ncccc23)C[C@H](CN2CCN(c3ncc(N4CCNCC4)cn3)CC2)O1` [Example 17, 5-[(2R,6S)-2-methyl-6-[[4-(5-piperazin-1-ylpyrimidin-2-yl)piperazin-1-yl]methyl]morpholin-4-yl]quinoline-8-carbonitrile], the IC50 was 186 nM. `C[C@@H]1CN(c2ccc(C#N)c3ncccc23)C[C@H](CN2CCN(c3cc(N4CCNCC4)ncn3)CC2)O1` [Example 18, 5-[(2R,6S)-2-methyl-6-[[4-(6-piperazin-1-ylpyrimidin-4-yl)piperazin-1-yl]methyl]morpholin-4-yl]quinoline-8-carbonitrile] showed an IC50 of 52 nM. `C[C@@H]1CN(c2ccc(C#N)c3ncccc23)C[C@H](CN2CCN(c3ccc([C@@H]4CNCCO4)cc3)CC2)O1` [Example 19, 5-[(2R,6S)-2-methyl-6-[[4-[4-[(2R)-morpholin-2-yl]phenyl]piperazin-1-yl]methyl]morpholin-4-yl]quinoline-8-carbonitrile] showed an IC50 of 91 nM. `C[C@@H]1CN(c2ccc(C#N)c3ncccc23)C[C@H](CN2CCN(c3ccc([C@H]4CNCCO4)cc3)CC2)O1` [Example 20, 5-[(2R,6S)-2-methyl-6-[[4-[4-[(2S)-morpholin-2-yl]phenyl]piperazin-1-yl]methyl]morpholin-4-yl]quinoline-8-carbonitrile] showed an IC50 of 96 nM. Work on `C[C@@H]1CN(c2ccc(C#N)c3ncccc23)C[C@H](CN2CCN(c3cc(N4CCN(C)CC4)ncn3)CC2)O1` [Example 21, 5-[(2R,6S)-2-methyl-6-[[4-[6-(4-methylpiperazin-1-yl)pyrimidin-4-yl]piperazin-1-yl]methyl]morpholin-4-yl]quinoline-8-carbonitrile] yielded an IC50 of 219 nM. `C[C@@H]1CN(c2ccc(C#N)c3ncccc23)C[C@H](CN2CCN(c3ccnc(N4CCN(C)CC4)n3)CC2)O1` [Example 22, 5-((2R,6S)-2-methyl-6-((4-(2-(4-methylpiperazin-1-yl)pyrimidin-4-yl)piperazin-1-yl)methyl)morpholino)quinoline-8-carbonitrile] gave an IC50 of 45 nM.
